According to publication PMC10824666 (Nature Cancer, 2023):
Read-outs that look alike come from different tables or passages of the source. Values belong to the molecule of their own block, whether it stands above or below them.

What was measured:
Assay in all cases: biochemical
Design in all cases: Eurofins DiscoverX kinase panel, competitive binding assay at 1 uM, percent of DMSO control
Settings in all cases: competitive binding, percent of DMSO control
Plk 1 = target: T1, Plk 1 (Homo sapiens, UniProt P53350)
T1 construct: gene PLK1
Method in brief: (§1)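 Single-point profiling at 1 µM compound in a competition-binding format against 96 kinases, read out as POC relative to control; n = 1.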

DYRK1a = DYRK1a (Homo sapiens, UniProt Q13627)
Method in brief: as §1

ERK2 = target: T2, ERK2 (Homo sapiens, UniProt P28482)
T2 construct: gene MAPK1
Method in brief: as §1

PAK 2 = target: T3, PAK 2 (Homo sapiens, UniProt Q13177)
T3 construct: gene PAK2
Method in brief: as §1

STK32B = STK32B (Homo sapiens, UniProt Q9NY57)
Method in brief: as §1

LCK = LCK (Homo sapiens, UniProt P06239)
Method in brief: as §1

Tyk-2 = target: T4, Tyk-2 (Homo sapiens, UniProt P29597)
T4 construct: gene TYK2
Method in brief: as §1

LYN = LYN (Homo sapiens, UniProt P07948)
Method in brief: as §1

[1] = read-out: Kinome Profiling performed by Eurofins DiscoverX / AM-0277, 1.0 µM / POC
[2] = read-out: Kinome Profiling performed by Eurofins DiscoverX / AM-1882, 1.0 µM / POC
[3] = read-out: Kinome Profiling performed by Eurofins DiscoverX / AM-5308, 1.0 µM / POC

LYN, sequence (P07948 whole entry): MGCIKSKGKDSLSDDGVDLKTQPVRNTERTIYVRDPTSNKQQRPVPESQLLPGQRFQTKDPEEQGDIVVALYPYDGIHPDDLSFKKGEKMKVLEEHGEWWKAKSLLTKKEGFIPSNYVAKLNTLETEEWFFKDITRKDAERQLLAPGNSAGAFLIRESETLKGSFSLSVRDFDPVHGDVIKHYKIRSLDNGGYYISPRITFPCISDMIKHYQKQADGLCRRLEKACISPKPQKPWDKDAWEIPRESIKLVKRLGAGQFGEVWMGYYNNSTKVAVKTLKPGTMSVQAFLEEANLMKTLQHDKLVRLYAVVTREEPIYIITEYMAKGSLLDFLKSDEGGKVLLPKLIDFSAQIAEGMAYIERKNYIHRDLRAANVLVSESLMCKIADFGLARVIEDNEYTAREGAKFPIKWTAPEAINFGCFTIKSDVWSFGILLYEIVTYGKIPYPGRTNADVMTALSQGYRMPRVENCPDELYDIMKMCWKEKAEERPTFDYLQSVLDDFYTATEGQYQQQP
T3 sequence (Q13177 whole entry): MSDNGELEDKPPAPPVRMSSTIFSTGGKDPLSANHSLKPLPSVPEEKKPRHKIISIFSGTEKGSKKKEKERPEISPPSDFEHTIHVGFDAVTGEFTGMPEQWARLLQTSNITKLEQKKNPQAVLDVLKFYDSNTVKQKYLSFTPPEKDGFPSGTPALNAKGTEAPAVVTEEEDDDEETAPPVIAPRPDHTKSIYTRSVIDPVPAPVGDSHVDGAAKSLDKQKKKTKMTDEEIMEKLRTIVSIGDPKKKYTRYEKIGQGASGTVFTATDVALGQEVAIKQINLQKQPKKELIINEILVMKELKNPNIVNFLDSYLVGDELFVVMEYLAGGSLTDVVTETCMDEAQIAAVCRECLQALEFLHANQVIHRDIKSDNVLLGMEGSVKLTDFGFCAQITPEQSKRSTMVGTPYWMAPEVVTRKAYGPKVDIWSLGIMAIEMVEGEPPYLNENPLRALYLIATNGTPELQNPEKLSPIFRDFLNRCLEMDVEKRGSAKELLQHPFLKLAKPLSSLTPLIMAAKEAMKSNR
STK32B, sequence (Q9NY57 whole entry): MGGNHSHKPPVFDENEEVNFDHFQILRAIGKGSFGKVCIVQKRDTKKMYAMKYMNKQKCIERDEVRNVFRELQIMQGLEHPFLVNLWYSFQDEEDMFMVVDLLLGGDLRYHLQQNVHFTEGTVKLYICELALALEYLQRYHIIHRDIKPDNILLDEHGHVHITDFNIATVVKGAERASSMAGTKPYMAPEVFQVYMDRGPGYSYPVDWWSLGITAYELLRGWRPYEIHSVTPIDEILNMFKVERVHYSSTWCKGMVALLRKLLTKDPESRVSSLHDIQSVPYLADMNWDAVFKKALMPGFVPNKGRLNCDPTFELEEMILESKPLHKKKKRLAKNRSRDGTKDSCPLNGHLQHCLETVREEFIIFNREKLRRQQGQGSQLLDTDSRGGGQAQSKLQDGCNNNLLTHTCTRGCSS
T1 sequence (P53350 whole entry): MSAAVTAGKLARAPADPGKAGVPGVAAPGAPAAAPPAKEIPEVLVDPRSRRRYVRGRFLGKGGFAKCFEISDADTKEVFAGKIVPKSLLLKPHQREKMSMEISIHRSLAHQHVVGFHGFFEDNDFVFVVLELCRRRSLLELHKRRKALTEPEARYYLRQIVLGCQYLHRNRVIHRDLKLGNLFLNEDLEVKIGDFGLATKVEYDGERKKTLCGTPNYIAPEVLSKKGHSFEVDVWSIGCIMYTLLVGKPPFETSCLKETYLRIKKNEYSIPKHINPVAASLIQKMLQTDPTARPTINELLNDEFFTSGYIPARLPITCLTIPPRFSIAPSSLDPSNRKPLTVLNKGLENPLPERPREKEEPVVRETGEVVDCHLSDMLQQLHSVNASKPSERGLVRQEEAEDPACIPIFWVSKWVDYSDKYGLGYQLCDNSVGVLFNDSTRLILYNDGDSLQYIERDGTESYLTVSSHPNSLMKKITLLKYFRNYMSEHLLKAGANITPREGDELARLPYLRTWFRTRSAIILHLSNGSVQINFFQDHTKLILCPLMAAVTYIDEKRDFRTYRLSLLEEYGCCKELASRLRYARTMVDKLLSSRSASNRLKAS
T2 sequence (P28482 whole entry): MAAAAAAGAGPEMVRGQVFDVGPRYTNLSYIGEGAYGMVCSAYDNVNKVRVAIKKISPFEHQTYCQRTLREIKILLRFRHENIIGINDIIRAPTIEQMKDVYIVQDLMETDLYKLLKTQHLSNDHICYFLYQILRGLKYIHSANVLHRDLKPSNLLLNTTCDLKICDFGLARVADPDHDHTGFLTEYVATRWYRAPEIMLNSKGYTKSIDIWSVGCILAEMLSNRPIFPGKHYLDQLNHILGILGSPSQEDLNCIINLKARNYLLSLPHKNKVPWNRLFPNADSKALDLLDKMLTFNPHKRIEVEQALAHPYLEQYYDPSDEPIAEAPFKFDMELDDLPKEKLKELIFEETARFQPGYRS
T4 sequence (P29597 whole entry): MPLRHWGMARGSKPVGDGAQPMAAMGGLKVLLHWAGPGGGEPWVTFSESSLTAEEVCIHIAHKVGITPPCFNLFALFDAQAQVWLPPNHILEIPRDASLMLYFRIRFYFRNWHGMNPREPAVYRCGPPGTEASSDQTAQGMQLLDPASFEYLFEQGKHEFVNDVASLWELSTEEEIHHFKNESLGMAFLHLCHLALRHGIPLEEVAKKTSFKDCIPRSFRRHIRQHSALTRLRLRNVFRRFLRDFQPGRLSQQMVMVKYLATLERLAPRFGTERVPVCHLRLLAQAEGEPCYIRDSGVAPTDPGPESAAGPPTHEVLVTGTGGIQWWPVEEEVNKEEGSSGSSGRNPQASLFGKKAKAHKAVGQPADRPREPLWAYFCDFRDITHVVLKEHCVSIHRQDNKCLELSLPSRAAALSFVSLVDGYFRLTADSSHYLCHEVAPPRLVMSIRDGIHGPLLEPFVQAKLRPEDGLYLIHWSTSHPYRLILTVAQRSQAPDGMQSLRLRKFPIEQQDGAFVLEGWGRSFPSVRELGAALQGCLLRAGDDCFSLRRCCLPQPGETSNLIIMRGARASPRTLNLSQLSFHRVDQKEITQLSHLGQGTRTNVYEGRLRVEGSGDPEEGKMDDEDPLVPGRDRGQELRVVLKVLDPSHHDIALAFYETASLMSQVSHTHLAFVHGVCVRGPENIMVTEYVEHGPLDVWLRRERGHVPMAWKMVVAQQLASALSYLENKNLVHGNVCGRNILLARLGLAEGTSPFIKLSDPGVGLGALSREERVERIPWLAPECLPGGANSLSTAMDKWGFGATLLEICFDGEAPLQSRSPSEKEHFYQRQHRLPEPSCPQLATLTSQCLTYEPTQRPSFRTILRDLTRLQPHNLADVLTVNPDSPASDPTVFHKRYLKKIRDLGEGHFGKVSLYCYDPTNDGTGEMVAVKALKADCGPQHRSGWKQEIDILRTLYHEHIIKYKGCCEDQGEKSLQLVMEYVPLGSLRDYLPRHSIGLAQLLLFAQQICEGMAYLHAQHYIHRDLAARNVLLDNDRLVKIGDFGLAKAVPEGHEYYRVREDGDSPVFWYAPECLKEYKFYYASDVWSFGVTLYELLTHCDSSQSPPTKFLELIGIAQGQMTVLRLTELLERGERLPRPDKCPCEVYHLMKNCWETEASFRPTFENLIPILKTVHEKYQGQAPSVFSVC
LCK, sequence (P06239 whole entry): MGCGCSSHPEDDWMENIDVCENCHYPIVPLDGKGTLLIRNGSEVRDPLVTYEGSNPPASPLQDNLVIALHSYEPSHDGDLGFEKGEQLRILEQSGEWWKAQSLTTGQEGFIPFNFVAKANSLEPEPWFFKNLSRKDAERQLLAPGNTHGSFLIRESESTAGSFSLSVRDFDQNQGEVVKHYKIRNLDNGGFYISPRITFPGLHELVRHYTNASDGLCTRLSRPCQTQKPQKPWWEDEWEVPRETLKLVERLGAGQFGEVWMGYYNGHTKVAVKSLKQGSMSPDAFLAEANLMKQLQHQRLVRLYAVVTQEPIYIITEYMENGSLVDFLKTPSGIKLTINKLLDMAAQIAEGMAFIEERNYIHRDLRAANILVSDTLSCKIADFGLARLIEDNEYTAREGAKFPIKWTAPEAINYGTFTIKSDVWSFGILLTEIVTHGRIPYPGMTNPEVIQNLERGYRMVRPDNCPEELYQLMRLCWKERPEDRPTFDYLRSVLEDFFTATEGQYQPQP

remaining activity at 1 µM (Plk 1; [1]): 100% | remaining activity at 1 µM (DYRK1a; [1]): 100% | remaining activity at 1 µM (ERK2; [1]): 95% | remaining activity at 1 µM (PAK 2; [1]): 100% | remaining activity at 1 µM (STK32B; [1]): 100% | remaining activity at 1 µM (LCK; [1]): 92% | remaining activity at 1 µM (Tyk-2; [1]): 100% | remaining activity at 1 µM (LYN; [1]): 100%
Structure (SMILES): CC(C)(CO)Nc1ccc(C(=O)Nc2cccc(S(=O)(=O)C3CCCC3)c2)c(N2CCC3(CC2)CC3)n1 [AM-0277]

remaining activity at 1 µM (Plk 1; [2]): 100% | remaining activity at 1 µM (DYRK1a; [2]): 81% | remaining activity at 1 µM (ERK2; [2]): 100% | remaining activity at 1 µM (PAK 2; [2]): 100% | remaining activity at 1 µM (STK32B; [2]): 100% | remaining activity at 1 µM (LCK; [2]): 95% | remaining activity at 1 µM (Tyk-2; [2]): 100% | remaining activity at 1 µM (LYN; [2]): 99.5%
Structure (SMILES): CC(C)(C)NS(=O)(=O)c1cccc(NC(=O)c2ccc(S(=O)(=O)NC(C)(C)C)cc2N2CCC3(CC2)CC3)c1 [AM-1882]

remaining activity at 1 µM (Plk 1; [3]): 95% | remaining activity at 1 µM (DYRK1a; [3]): 100% | remaining activity at 1 µM (ERK2; [3]): 89% | remaining activity at 1 µM (PAK 2; [3]): 66.5% | remaining activity at 1 µM (STK32B; [3]): 96% | remaining activity at 1 µM (LCK; [3]): 92% | remaining activity at 1 µM (Tyk-2; [3]): 84% | remaining activity at 1 µM (LYN; [3]): 86.5%
Structure (SMILES): C[C@@H]1CN(c2cccc(NC(=O)c3ccc(NS(=O)(=O)CCO)cc3N3CCC4(CC3)CC4)n2)CCO1 [AM-5308]
